In patent US10487056B2, “Small molecule androgen receptor inhibitors and methods of use thereof” (GEORGETOWN UNIVERSITY, priority 2015, dated 2019):

Key:
Format in all cases: cell-based
22Rv1 cells [1] = assay: Cleaved caspase-3 and cleaved PARP by Western blot and immunofluorescence, 22Rv1 cells; settings: SH-I-125 1 μM, three days
Description: (§1) 22Rv1 cells were treated with SH-I-125 (1 μM) for one, two, or three days, and caspase 3/7 activity was measured using Caspase-Glo 3/7 substrates. […] Data represent mean of three independent experiments with quadruplicate samples; bars, SEM. ***, p value <0.001 determined by ANOVA.
The presence of cleaved caspase-3 and cleaved PARP were determined. The cells were counterstained with 4′,6-diamidino-2-phenylindole (DAPI).
Western blotting was performed as described in Amin et al., Mol. Cancer Ther., 13:341-52 (2014). The following antibodies were used: Androgen receptor (N-20; Santa Cruz Biotechnology; Dallas, Tex.), PSA (A0562; Dako; Carpinteria, Calif.), β-actin (SC-47778; Santa Cruz Biotechnology), AR-V7 (AG10008; Precision Antibody; Columbia, Md.), cleaved PARP (9541; Cell Signaling Technologies, Danvers, Mass.), and cleaved caspase-3 (9664; Cell Signaling Technologies, Danvers, Mass.).
It was determined whether caspase activity and apoptosis were induced in 22Rv1 cells upon SH-I-125 treatment. […] Staurosporine was used as a positive control for apoptosis induction (FIG. 10B).

VCaP-MDVR cells = assay: Caspase-Glo 3/7 activity assay, VCaP-MDVR cells; settings: SH-I-125 1 μM, 3 days
Description: Caspase 3/7 activity was measured using Caspase-Glo 3/7 substrates. Data represent mean of three independent experiments with quadruplicate samples; bars, SEM.
The emergence of resistance to clinical anti-androgens is an ongoing problem in the treatment of castration-resistant prostate cancer.

AR [2] = assay: VCaP-MDVR-ARE-luc luciferase reporter assay; settings: VCaP-MDVR-ARE-luc cells, range of doses, 24 hours
Description: […]. Luciferase activity was measured and plotted as a percentage of control. Data represent the mean of three independent experiments with quadruplicate samples; bars, SEM. ***, p value <0.001 determined by ANOVA.
VCaP-MDVR and 22Rv1-MDVR stably expressing ARE-luciferase construct (VCaP-MDVR-ARE-luc and 22Rv1-MDVR-ARE-luc) were generated as described above in the Materials and Methods section. […].

hTERT promoter = assay: hTERT promoter-luciferase reporter in 22Rv1 cells; settings: 2.5 μM, 24 hours
Description: (§2) 22Rv1 cells were transfected with hTERT promoter-luciferase reporter construct and Renilla luciferase plasmids (pRL-TK-Luc) and treated with 2.5 μM of SH-I-125 for 24 hours. Promoter activity was determined after normalization with Renilla luciferase activity. Columns, mean of three independent experiments with quadruplicate samples; bars, SEM.

22Rv1 cells [3] = assay: Caspase-Glo 3/7 activity assay, 22Rv1 cells
Description: as §1
(§3) Caspase 3/7 activity was measured using Caspase-Glo 3/7 substrates. Data represent mean of three independent experiments with quadruplicate samples; bars, SEM. ***, p value <0.001 determined by ANOVA.
[…]; Madison, Wis.).
. […] Staurosporine was used as a positive control for apoptosis induction (FIG. 10B).

AR and AR-V7 [4] = assay: Immunofluorescence staining of AR and AR-V7 in 22Rv1 cells; settings: SH-I-125 1 μM, 24 hours
Description: […]. Androgen receptor (AR) and PSA expression levels were assessed.
(§4) Immunofluorescence staining was performed as described in Amin et al., Mol. Cancer Ther., 13:341-52 (2014).
22Rv1 cells represent a commonly observed castration-resistant phenotype, including androgen-independent growth and the expression of AR splice variants, such as AR-V7. […]. […] […].

AR and AR-V7 [5] = assay: Western blot of AR and AR-V7 levels in 22Rv1 cells
Description: AR levels were assessed by Western blotting. β-actin was used as a loading control.
(§5) AR and AR-V7 levels were assessed. β-actin was used as a loading control.
as §5
MG132 (5 μM), a known proteasome inhibitor, was added on Day 2. AR expression was assessed by Western blotting. β-actin was used as a loading control.

c-myc promoter = assay: c-myc promoter-luciferase reporter in 22Rv1 cells; settings: 1 μM, 24 hours
Description: as §2, with “c-myc” for “hTERT”, “1” for “2.5”

22Rv1 cells [6] = assay: MTT cell viability assay, 22Rv1 cells; settings: 3 days
Description: (§6) Cells were treated in the manner indicated below for the specified period of time. MTT assay was performed as described in Amin et al., Mol. Cancer Ther., 13:341-52 (2014).
(§7) To determine the effects of SH-I-125 on prostate cancer cell growth, 22Rv1 cells were treated with SH-I-125 and cell viability was measured after a period of 3 days. […]. In comparison, non-tumorigenic primary prostate epithelial cells (PrEC) retained 80% viability in the presence of a similar range of doses of SH-I-125, showing that tumorigenic cells are more susceptible to the growth inhibitory properties of SH-I-125 compared to non-tumorigenic cells (FIG. 8B). […] Staurosporine was used as a positive control for cell death induction in live and dead assays (FIG. 9C).

VCaP cells = assay: Caspase-Glo 3/7 activity assay, VCaP cells; settings: 3 days
Description: as §3

AR [7] = assay: Immunofluorescence staining of AR and PSA in VCaP-MDVR cells; settings: DHT 1 nM, MDV3100 10 μM or SH-I-125 1 μM, 24 hours
Description: AR and PSA expression levels were assessed.
as §4

22Rv1 cells [8] = assay: Live and dead cell staining, 22Rv1 cells; settings: SH-I-125 1 μM, 3 days
Description: Live and dead cells were determined using a Cell Viability/Cytotoxicity Assay kit (Biotium Inc.; Hayward, Calif.).
as §7

[9] = MTT cell viability assay, PrEC cells; settings: human, non-tumorigenic primary prostate epithelial cells (PrEC), similar range of doses, read-out: cell viability retained
Description: as §6, §7

AR [10] = assay: Immunofluorescence staining of AR in 22Rv1-MDVR cells; settings: MDV3100 10 μM, ARN509 10 μM or SH-I-125 1 μM, 24 hours
Description: […]. AR and AR-V7 expression levels were assessed.
as §4

## COc1ccc2c(c1)[nH]c1c(C)c(OS(=O)(=O)c3cccc4ccccc34)ccc12 [SH-I-125, 7-methoxy-1-methyl-9H-carbazol-2-yl naphthalene-1-sulfonate]
22Rv1 cells [1]
  cleaved caspase-3 and cleavage of PARP: presence of cleaved caspase-3 and accompanied by the cleavage of PARP
VCaP-MDVR cells
  caspase 3/7 activation: inducing caspase activation
AR [2]
  inhibitory effect on AR activity (luciferase): retained its inhibitory effect
hTERT promoter
  hTERT promoter-luciferase activity: unaffected
22Rv1 cells [3]; 3 days
  caspase 3/7 activity: induced caspase activity
22Rv1 cells [3]; SH-I-125 1 μM, after three days treatment
  caspase-3 and -7 activities, time-course: significantly induced
AR and AR-V7 [4]
  nuclear localization of AR and AR-V7: decreased the nuclear localization of AR and AR-V7
AR and AR-V7 [5]; 3 days, SH-I-125 at 1 μM
  cellular AR and AR-V7 levels: reduced AR and AR-V7 levels
AR and AR-V7 [5]; SH-I-125 plus MG132
  AR and AR splice variant levels in the presence of proteasome inhibitor MG132: Proteasome inhibition rescued the decline
c-myc promoter
  c-myc promoter-luciferase activity: unaffected
22Rv1 cells [6]; MTT
  potency relative to natural-derived and synthetically-derived mahanine in preventing growth: ten-fold
22Rv1 cells [6]; Homo sapiens, 72 h, dose of 1 μM, read-out: cell viability, of control
  viability at 1 µM: 50%
VCaP cells
  caspase 3/7 activity: induced caspase activity
AR [7]
  AR expression / nuclear localization: decreased AR nuclear localization
  PSA expression: decreased AR nuclear localization and PSA expression
22Rv1 cells [8]
  live and dead cell staining: killed 22Rv1 cells
[9]
  viability at 3 days: 80%
AR [10]
  AR nuclear localization: decreased AR nuclear levels
